Laboratory results as given in US4675403A, “3-Aminoalkyl derivatives of 5,5-disubstituted hydantoins with psychotropic activity” (American Home Products Corporation, priority 1985, dated 1987).
Counter-ions that a name gives are not always drawn. Like-named read-outs stand apart in the source and are kept apart here.

Key:
[1] = target: limbic D-2 dopamine receptor (Rattus norvegicus, UniProt P61169); experiment: inhibition of limbic D-2 dopamine receptor binding (3H-spiroperidol); parameters: species or system rats; settings: for inhibition at 10 µM: read-out: Limbic D-2 Binding, inhibition at 10 μM
Chain of limbic D-2 dopamine receptor (P61169 whole entry): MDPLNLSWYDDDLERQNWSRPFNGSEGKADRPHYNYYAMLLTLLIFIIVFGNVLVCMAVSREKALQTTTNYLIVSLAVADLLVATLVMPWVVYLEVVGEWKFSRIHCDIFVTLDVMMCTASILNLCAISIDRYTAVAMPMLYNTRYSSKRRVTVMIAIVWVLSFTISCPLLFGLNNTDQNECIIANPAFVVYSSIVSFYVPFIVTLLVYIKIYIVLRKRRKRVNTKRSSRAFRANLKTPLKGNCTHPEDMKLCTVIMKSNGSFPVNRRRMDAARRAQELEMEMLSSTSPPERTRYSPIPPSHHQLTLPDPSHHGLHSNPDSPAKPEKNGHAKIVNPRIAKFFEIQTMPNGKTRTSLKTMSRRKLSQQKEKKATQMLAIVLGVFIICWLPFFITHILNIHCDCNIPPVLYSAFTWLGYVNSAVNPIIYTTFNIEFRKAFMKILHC
Method: The test is carried out as follows:

[2] = tested on: conditioned avoidance (shelf-jump response); experiment: conditioned avoidance (shelf-jump response) test; settings: Rattus norvegicus, ip, read-out: AB50
Method: This test is carried out as follows:
Male CD rats (Charles River) maintained at approximately 400-450 gm body weight are used. […] A moveable wall, controlled by a motor, determines whether the rat has access to the shelf at any time during the experiment. The experimental chamber also contains a house light and sonalert. A steel grid floor in the main chamber is wired for presentation of electric shock. Each trial consists of a fifteen-second warning tone (conditioned stimulus), continuing for an additional fifteen seconds accompanied by electric shock, (unconditioned stimulus). A response (jumping onto the exposed shelf of the upper chamber) occurring during the initial fifteen-second warning tone is considered an avoidance response, while a response occurring during shock delivery is considered an escape response. […]
The following experimental parameters are recorded by computer: (1) the number of avoidance responses, (2) the number of escape responses, and (3) the number of trials in which no response occurred.
Response counts are summed over all subjects at a given dose. […] This number is expressed as a percentage of the total trials. Control performance is arbitrarily assigned a value of 100% for avoidance and the dose calculated to produce a 50% block in avoidance responding (AB50) is obtained from a dose-effect regression line fitted by the method of least squares.

[3] = rat limbic tissue, 0.3 nM 3H-spiroperidol

| inhibition at 1 µM [1, 3] | SMILES | ED50 [2] | inhibition at 10 µM [1] | also measured |
| --- | --- | --- | --- | --- |
| 10% | O=C1NC2(CCCCC2)C(=O)N1CCCCN1CCN(c2ncccn2)CC1 [Example 4, 5,5-Pentamethylene-3-[4-[4-(2-pyrimidinyl)-4-piperazinyl]butyl]-2,4-imidazolidinedione, dihydrochloride] | – | – | – |
| 5% | CC1(C)NC(=O)N(CCCCN2CCN(c3ncccn3)CC2)C1=O [Example 5, 5,5-Dimethyl-3-[4-[4-(2-pyrimidinyl)-4-piperazinyl]butyl]-2,4-imidazolidinedione, hydrochloride] | – | – | – |

Further lines, the compound ahead of its results:

| SMILES | inhibition at 1 µM [1, 3] | ED50 [2] | inhibition at 10 µM [1] | also measured |
| --- | --- | --- | --- | --- |
| O=C1NC2(CC3CCC2C3)C(=O)N1CCCCN1CCN(c2ncccn2)CC1 (centres unmarked) [Example 2, 1-[4-[4-(2-Pyrimidinyl)-1-piperazinyl]butyl]spiro[bicyclo[2.2.1]heptane-2,4'-imidazolidine]-2',5'-dione, dihydrochloride] | – | 33.3 mg/kg | – | Ki ([1]; rat limbic tissue, 0.3 nM 3H-spiroperidol, Table 1): 2000 nM |
| O=C1NC2(CCCC2)C(=O)N1CCCCN1CCC(O)(c2ccc(Cl)cc2)CC1 [Example 8, dihydrochloride] | – | – | 40% | – |
| Cl.Cl.O=C1CNC(=O)N1CCCCN1CCN(c2ncccn2)CC1 [Example 3, 3-[4-[4-(2-Pyrimidinyl)-1-piperazinyl]butyl]-2,4-imidazolidinedione, dihydrochloride] | – | 45.8 mg/kg | 24% | – |
| O=C1NC2(CCCC2)C(=O)N1CCCCN1CCN(c2ncccn2)CC1 [Example 7, 5,5-Tetramethylene-3-[4-[4-(2-pyrimidinyl)-4-piperazinyl]butyl]-2,4-imidazolidinedione, dihydrochloride] | – | – | – | inhibition at 10 µM ([1]; 10 μM, rat limbic tissue, 0.3 nM 3H-spiroperidol): 51% |
